The results in this text go back to patent publication US20110195153A1, “Nutritional Formulation Comprising A Cows Milk Peptide Containing Hydrolysate And Or Peptides Derived Thereof For Tolerance Induction” (MEAD JOHNSON NUTRITION COMPANY, priority 2009, published 2011).

Values joined by “and” are separate entries in the source; they are usually repeats but may differ in a detail not shown here. Equal values may be shown once.

The test system of the assay is T-cells. The assay can be described thus: Tolerance induction experiment: T-cell fraction preincubated, combined with APCs and re-stimulated. The assay is classed as cell-based, human. Particulars: for mean cpm / cpm / SI: individual KF1; for cpm: individual experiments; for proliferation of T-cells when re-stimulated with cow's milk protein after preincubation with the substance: re-stimulated with whey protein concentrate VTP14 or rαS1-casein, in words. The procedure: For the tolerance induction experiment, PBMCs from healthy donors were isolated by Ficoll-density gradient, and the cells were further separated into two fractions. T-cells were enriched with a human Pan-T-cell isolation Kit (Miltenyi, Bergisch Gladbach, Germany), whereas antigen-presenting cells were enriched with human CD3 MicroBeads (Miltenyi, Bergisch Gladbach, Germany) by magnetic cell sorting.
The cell fractions containing the T-cells were incubated overnight with different peptides or medium alone at 37° C. with 5% CO2 and 95% humidity, the antigen-presenting-cell fractions were kept overnight at the same conditions without any antigens. On the next day, the T-cell fractions were washed with DPBS (GIBCO) three times and the T-cell and antigen-presenting-cell fractions were combined. The cells (2×10^5 cells per well) were cultured in triplicates in 96-well plates as described above. […] The analysis was done as described for the lymphoproliferative assays.
T-cell fractions were preincubated over night with high amounts of Nutramigen™ base (VTP11), extensive casein hydrolysate (VTP15), whole cow's milk whey protein (VTP14), Nutramigen™ (VTP3), synthetic peptides ([…], Phl p 5-Pep 1) or buffer (UCO). On the next day the T-cells and the APCs were combined and stimulated with milk samples (VTP14, VTP1). T cell stimulation is given either in counts per minute (cpm) or as stimulation index (SI).

Where [1] appears, read: T-cells tolerized with the substance, stimulated with UCO.
Where [2] appears, read: tolerized with the substance, stimulated with IL-2.
[3] abbreviates: tolerized with the substance, stimulated with VTP1, first line.
[4] abbreviates: tolerized with the substance, stimulated with VTP1, second line.
[5] abbreviates: tolerized with the substance, stimulated with VTP14, first line.
The mark [6] stands for this setting: tolerized with the substance, stimulated with VTP14, second line.

On to “CGAASNKAFAEGLSGEPKGAAESSSKAALTSK (Phleum pratense) [Phl P5-peptide 1, control peptide, grass pollen allergen]”, for which the mean cpm is listed as 12522 cpm under setting [1]; 14724 cpm under setting [2]; 4295 cpm under setting [3]; 6355 cpm under setting [4]; 41970 cpm under setting [5]; 2336 cpm under setting [6]. The cpm runs as follows: (T-cells tolerized with the substance, stimulated with UCO, listed as Ph1 p 5-Pep 1) 11263 cpm and 13457 cpm and 12846 cpm; (tolerized with the substance, stimulated with IL-2, listed as Ph1 p 5-Pep 1) 14153 cpm and 17806 cpm and 12214 cpm; (tolerized with the substance, stimulated with VTP1, first line, listed as Ph1 p 5-Pep 1) 4708 cpm and 3278 cpm and 4898 cpm; (tolerized with the substance, stimulated with VTP1, second line, listed as Ph1 p 5-Pep 1) 6315 cpm and 6342 cpm and 6409 cpm; (tolerized with the substance, stimulated with VTP14, first line, listed as Ph1 p 5-Pep 1) 38430 cpm and 45751 cpm and 41730 cpm; (tolerized with the substance, stimulated with VTP14, second line, listed as Ph1 p 5-Pep 1) 3282 cpm and 2244 cpm and 1482 cpm. Moreover, the SI is recorded as 1.2 under setting [2]; 0.3 under setting [3]; 0.5 under setting [4]; 3.4 under setting [5]; 0.2 under setting [6].
For the sequence “CLKKYKVPQLEIVPNSAEERLHSMKEGIHAQQKE (listed as Bos taurus) [Cas4]”, the “proliferation of T-cells when re-stimulated with cow's milk protein after preincubation with the substance” value (“proliferation of T-cells” below) was “suppress the proliferation of T-cells”. In addition, the mean cpm under setting [1] amounted to 16151 cpm. Further, the cpm (T-cells tolerized with the substance, stimulated with UCO, listed as αS2-PEP 4) is 17694 cpm and 14608 cpm. In addition, under setting [2], the SI was 0.9 and the mean cpm is given as 14533 cpm. Where the note is “tolerized with the substance, stimulated with IL-2, listed as αS2-PEP 4”, the cpm was 12704 cpm and 19463 cpm and 11433 cpm. In addition, under setting [3], the SI is recorded as 0.4 and the mean cpm is listed as 6304 cpm. Besides, the cpm (tolerized with the substance, stimulated with VTP1, first line, listed as αS2-PEP 4) is 6381 cpm and 6304 cpm and 6226 cpm. In addition, under setting [4], the SI was 0.4 and the mean cpm turned out to be 6621 cpm. Moreover, for the setting “tolerized with the substance, stimulated with VTP1, second line, listed as αS2-PEP 4”, the cpm was 8231 cpm and 8478 cpm and 3154 cpm. In addition, under setting [5], the SI was 1.3 and the mean cpm is listed as 20794 cpm. Under “tolerized with the substance, stimulated with VTP14, first line, listed as αS2-PEP 4”, the cpm was 16162 cpm and 25246 cpm. Also, under setting [6], the SI worked out at 0.2 and the mean cpm was 3747 cpm. Moreover, the cpm (tolerized with the substance, stimulated with VTP14, second line, listed as αS2-PEP 4) is 2790 cpm and 4703 cpm.
For the sequence “ISSSEEIVPNSVEQKHIQKEDVPSERYLGYEQLLRC (listed as Bos taurus) [Cas3]”, the “proliferation of T-cells” value is listed as “suppress the proliferation of T-cells”. In addition, under “listed as alphaS1-casein-derived peptide 3”, the “proliferation of T-cells” value was “suppressed the proliferation”.
